Results on 25 compounds are retold here after patent US8796256B2 (Janssen Pharmaceutica NV, priority 2010, dated 2014).

The assay deals with T1, ERR1 (also known as ERR-α or ERR-1) (Homo sapiens, UniProt P11474).
T1 sequence (P11474 193-421 limits assumed): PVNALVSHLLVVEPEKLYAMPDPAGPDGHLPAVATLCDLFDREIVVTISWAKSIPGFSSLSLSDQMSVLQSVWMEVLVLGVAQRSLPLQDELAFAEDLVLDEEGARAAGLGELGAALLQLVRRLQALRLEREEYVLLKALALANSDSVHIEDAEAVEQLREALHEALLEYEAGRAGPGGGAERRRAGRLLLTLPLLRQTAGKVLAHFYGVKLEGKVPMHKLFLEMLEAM
The assay can be described thus: TR-FRET assay (disruption of co-activator peptide binding to ERR1 LBD). The settings on record: 6 nM 6His-ERR1LBD, 6 nM GST-SRC-2 peptide; average of 3 independent experiments. The format is biochemical. In a few lines:
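His-tagged ERR1 ligand-binding domain and GST-labelled SRC-2 peptide, each 6 nM, equilibrated at 25° C for 4-18 h in Tris pH 8/Hepes/KCl/DTT/delipidated BSA buffer. Compound-induced loss of co-activator binding read as Eu cryptate→XL665 energy transfer; values from hyperbolic curve fits averaged over 3 independent runs.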
For orientation: EC50 means the concentration at which the effect is half-maximal. A higher EC50 goes with a need for much substance. In the case of `O=C1S/C(=C\c2ccc3c(cnn3Cc3ccc(Cl)cc3C(F)(F)F)c2)C(=O)N1C1CCN(CC(F)(F)F)CC1` [Compound 150, (5Z)-5-({1-[4-Chloro-2-(trifluoromethyl)benzyl]-1H-indazol-5-yl}methylidene)-3-[1-(2,2,2-trifluoroethyl)piperidin-4-yl]-1,3-thiazolidine-2,4-dione], a half-maximal effect (EC50) was put at 57 nM.

`CC(=O)Nc1nc(CN2C(=O)S/C(=C\c3ccc4c(cnn4Cc4ccc(Cl)cc4C(F)(F)F)c3)C2=O)cs1` [Compound 413, N-(4-{[(5Z)-5-({1-[4-Chloro-2-(trifluoromethyl)benzyl]-1H-indazol-5-yl}methylidene)-2,4-dioxo-1,3-thiazolidin-3-yl]methyl}-1,3-thiazol-2-yl)acetamide]: the midpoint of the response, the EC50, lay at 312 nM. This EC50 lies about 5.5-fold higher than the previous one.

The compound `Cc1nn(Cc2ccc(Cl)cc2C(F)(F)F)c2ccc(/C=C3\SC(=O)N([C@@H]4CCN(C)C[C@H]4F)C3=O)cc12` (relative stereo) [Compound 335, (5Z)-5-({1-[4-Chloro-2-(trifluoromethyl)benzyl]-3-methyl-1H-indazol-5-yl}methylidene)-3-[trans-3-fluoro-1-methylpiperidin-4-yl]-1,3-thiazolidine-2,4-dione] registered an EC50 of 46 nM. Compared with the last compound, the EC50 is about 6.8-fold lower.

`O=C1S/C(=C\c2ccc3c(cnn3Cc3ccc(Cl)cc3C(F)(F)F)c2)C(=O)N1C1CCCNC1` (stereo not shown) [Compound 124, (5Z)-5-({1-[4-Chloro-2-(trifluoromethyl)benzyl]-1H-indazol-5-yl}methylidene)-3-piperidin-3-yl-1,3-thiazolidine-2,4-dione] had an EC50 of 51 nM.

`O=C1S/C(=C\c2ccc3c(cnn3Cc3ccc(Cl)cc3C(F)(F)F)c2)C(=O)N1CCN1CCC(F)(F)C1` [Compound 116, (5Z)-5-({1-[4-Chloro-2-(trifluoromethyl)benzyl]-1H-indazol-5-yl}methylidene)-3-[2-(3,3-difluoropyrrolidin-1-yl)ethyl]-1,3-thiazolidine-2,4-dione]: the response was half-maximal at 180 nM (EC50).

With `COc1ccc(Cn2nc(C)c3cc(/C=C4\SC(=O)N(CCN5CCOCC5)C4=O)ccc32)c(C(F)(F)F)c1` [Compound 20, (5Z)-5-({1-[4-Methoxy-2-(trifluoromethyl)benzyl]-3-methyl-1H-indazol-5-yl}methylidene)-3-(2-morpholin-4-ylethyl)-1,3-thiazolidine-2,4-dione], the EC50 came out at 14 nM.

As to `O=C1S/C(=C\c2ccc3c(cnn3Cc3ccc(Cl)cc3C(F)(F)F)c2)C(=O)N1Cc1c[nH]cn1` [Compound 405, (5Z)-5-({1-[4-Chloro-2-(trifluoromethyl)benzyl]-1H-indazol-5-yl}methylidene)-3-(1H-imidazol-4-ylmethyl)-1,3-thiazolidine-2,4-dione], the EC50 was 48 nM.

On to `CCN1CC[C@H](N2C(=O)S/C(=C\c3ccc4c(cnn4Cc4ccc(Cl)cc4C(F)(F)F)c3)C2=O)C1` [Compound 119, (5Z)-5-({1-[4-Chloro-2-(trifluoromethyl)benzyl]-1H-indazol-5-yl}methylidene)-3-[(3S)-1-ethylpyrrolidin-3-yl]-1,3-thiazolidine-2,4-dione], for which the EC50 was found to be 40 nM.

In turn, `CC1(C)CC(N2C(=O)S/C(=C\c3ccc4c(cnn4Cc4ccc(Cl)cc4C(F)(F)F)c3)C2=O)CC(C)(C)N1` [Compound 175, (5Z)-5-({1-[4-Chloro-2-(trifluoromethyl)benzyl]-1H-indazol-5-yl}methylidene)-3-(2,2,6,6-tetramethylpiperidin-4-yl)-1,3-thiazolidine-2,4-dione] yielded an EC50 of 35 nM.

`COC(=O)C1(N2C(=O)S/C(=C\c3ccc4c(cnn4Cc4ccc(Cl)cc4C(F)(F)F)c3)C2=O)CCC1` [Compound 234, Methyl 1-[(5Z)-5-({1-[4-chloro-2-(trifluoromethyl)benzyl]-1H-indazol-5-yl}methylidene)-2,4-dioxo-1,3-thiazolidin-3-yl]cyclobutanecarboxylate] yielded an EC50 of 99 nM.

Consider `O=C1S/C(=C\c2ccc3c(cnn3Cc3ccc(Cl)cc3C(F)(F)F)c2)C(=O)N1CC(O)C1CCNCC1` (stereo not shown) [Compound 285, (5Z)-5-({1-[4-Chloro-2-(trifluoromethyl)benzyl]-1H-indazol-5-yl}methylidene)-3-(2-hydroxy-2-piperidin-4-ylethyl)-1,3-thiazolidine-2,4-dione], for which the EC50 was 38 nM.

As for `CCN1CCC(N2C(=O)S/C(=C\c3ccc4c(cnn4Cc4ccc(Cl)cc4C(F)(F)F)c3)C2=O)CC1` [Compound 118, (5Z)-5-({1-[4-Chloro-2-(trifluoromethyl)benzyl]-1H-indazol-5-yl}methylidene)-3-(1-ethylpiperidin-4-yl)-1,3-thiazolidine-2,4-dione], the EC50 was 25 nM.

The compound `O=C1S/C(=C\c2ccc3c(cnn3Cc3ccc(Cl)cc3C(F)(F)F)c2)C(=O)N1[C@@H]1CCNC[C@H]1F` (relative stereo) [Compound 273, (5Z)-5-({1-[4-Chloro-2-(trifluoromethyl)benzyl]-1H-indazol-5-yl}methylidene)-3-(trans-3-fluoropiperidin-4-yl)-1,3-thiazolidine-2,4-dione] returned an EC50 of 34 nM. This EC50 and that of the compound before are within 1.5-fold of each other.

For `CC(C)N1CC[C@@H](N2C(=O)S/C(=C\c3ccc4c(cnn4Cc4ccc(Cl)cc4C(F)(F)F)c3)C2=O)[C@H](F)C1` (relative stereo) [Compound 328, (5Z)-5-({1-[4-Chloro-2-(trifluoromethyl)benzyl]-1H-indazol-5-yl}methylidene)-3-[trans-3-fluoro-1-(1-methylethyl)piperidin-4-yl]-1,3-thiazolidine-2,4-dione], the EC50 was 152 nM.

Regarding `O=C(O)[C@@H](CO)N1C(=O)S/C(=C\c2ccc3c(cnn3Cc3ccc(Cl)cc3C(F)(F)F)c2)C1=O` [Compound 222, (2R)-2-[(5Z)-5-({1-[4-Chloro-2-(trifluoromethyl)benzyl]-1H-indazol-5-yl}methylidene)-2,4-dioxo-1,3-thiazolidin-3-yl]-3-hydroxypropanoic acid], the EC50 worked out at 58 nM.

For the compound `O=C1S/C(=C\c2ccc3c(cnn3Cc3ccc(C(F)(F)F)cc3C(F)(F)F)c2)C(=O)N1C[C@H]1CCCN1` [Compound 82, (5Z)-5-({1-[2,4-Bis(trifluoromethyl)benzyl]-1H-indazol-5-yl}methylidene)-3-[(2R)-pyrrolidin-2-ylmethyl]-1,3-thiazolidine-2,4-dione], the EC50 came out at 81 nM.

`Cn1cnc(CC(C(=O)O)N2C(=O)S/C(=C\c3ccc4c(cnn4Cc4ccc(Cl)cc4C(F)(F)F)c3)C2=O)c1` (stereo not shown) [Compound 223, 2-[(5Z)-5-({1-[4-Chloro-2-(trifluoromethyl)benzyl]-1H-indazol-5-yl}methylidene)-2,4-dioxo-1,3-thiazolidin-3-yl]-3-(1-methyl-1H-imidazol-4-yl)propanoicacid]: the EC50 was found to be 55 nM.

Take `O=C1S/C(=C\c2ccc3c(cnn3Cc3ccc(Cl)cc3C(F)(F)F)c2)C(=O)N1Cc1nccs1` [Compound 92, (5Z)-5-({1-[4-Chloro-2-(trifluoromethyl)benzyl]-1H-indazol-5-yl}methylidine)-3-(1,3-thiazol-2-ylmethyl)-1,3-thiazolidine-2,4-dione]: a half-maximal effect (EC50) was put at 24 nM.

`O=C1S/C(=C\c2ccc3c(cnn3Cc3ccc(Cl)cc3C(F)(F)F)c2)C(=O)N1[C@H]1CCNC[C@@H]1F` [Compound 382, (5Z)-5-({1-[4-Chloro-2-(trifluoromethyl)benzyl]-1H-indazol-5-yl}methylidene)-3-[(3S,4S)-3-fluoropiperidin-4-yl]-1,3-thiazolidine-2,4-dione] came in with an EC50 of 11 nM.

`Cc1nn(Cc2ccc(Cl)cc2C(F)(F)F)c2ccc(/C=C3\SC(=O)N(NS(C)(=O)=O)C3=O)cc12` [Compound 365, N-[(5Z)-5-({1-[4-Chloro-2-(trifluoromethyl)benzyl]-3-methyl-1H-indazol-5-yl}methylidene)-2,4-dioxo-1,3-thiazolidin-3-yl]methanesulfonamide] returned an EC50 of 23 nM.

`N#CCN1CC[C@@H](N2C(=O)S/C(=C\c3ccc4c(cnn4Cc4ccc(Cl)cc4C(F)(F)F)c3)C2=O)[C@H](F)C1` (relative stereo) [Compound 338]: the EC50 came out at 24 nM. The EC50 values of the last two compounds are within 1.5-fold of each other.

On to `CCN1CCC(N2C(=O)S/C(=C\c3ccc4c(cnn4Cc4ccc(OC)cc4C(F)(F)F)c3)C2=O)CC1` [Compound 28, (5Z)-3-(1-Ethylpiperidin-4-yl)-5-({1-[4-methoxy-2-(trifluoromethyl)benzyl]-1H-indazol-5-yl}methylidene)-1,3-thiazolidine-2,4-dione], for which the EC50 stood at 14 nM.

On to `CN(C)CCN1C(=O)S/C(=C\c2ccc3c(ccn3Cc3ccc(Cl)cc3C(F)(F)F)c2)C1=O` [Compound 243, (5Z)-5-[(1-{[4-Chloro-2-(trifluoromethyl)phenyl]methyl}-1H-indol-5-yl)methylidene]-3-[2-(dimethylamino)ethyl]-1,3-thiazolidine-2,4-dione], for which the EC50 is 50 nM. This EC50 is about 3.6-fold higher than that of the compound before.

The compound `CS(=O)(=O)NC(=O)CN1C(=O)S/C(=C\c2ccc3c(cnn3Cc3ccc(C(F)(F)F)cc3C(F)(F)F)c2)C1=O` [Compound 60, 2-[(5Z)-5-({1-[2,4-Bis(trifluoromethyl)-benzyl]-1H-indazol-5-yl}methylidene)-2,4-dioxo-1,3-thiazolidin-3-yl]-N-(methyl-sulfonyl)acetamide] displayed an EC50 of 57 nM.

`O=C1S/C(=C\c2ccc3c(cnn3Cc3ccc(Cl)cc3C(F)(F)F)c2)C(=O)N1C[C@@H]1CCCN2CCCC[C@H]12` [Compound 206, (5Z)-5-({1-[4-Chloro-2-(trifluoromethyl)benzyl]-1H-indazol-5-yl}methylidene)-3-[(1S,9aR)-octahydro-2H-quinolizin-1-ylmethyl]-1,3-thiazolidine-2,4-dione] came in with an EC50 of 97 nM.
